Key:
Format in all cases: biochemical
[1] = system: human myeloid leukocyte c-jun cDNA; experiment: PCR amplification of c-jun with lower denaturation/extension temperatures; conditions: for Potency: annealing 50° C.
Experimental: Amplification reactions were carried out under the following general conditions. Those skilled in the art will appreciate, however, that to the extent that the conditions (set forth in this application) required for specific experiments described in this example were inconsistent with the following general conditions, limited exceptions to the following general conditions were made The general conditions were as follows: 10 Mm Tris-HCl (Ph 8.8), 50 Mm KCl, 1.5 Mm MgCl2, 0.01% (w/v) gelatin, 0.2 Um primers, 0.06 ng/ul template, 0.2 Mm each Dntp, 0.04 U/ul Taq polymerase. The templates used were bovine brain N-WASP cDNA (1518 bp), a 996 by segment of human myeloid leukocyte c-jun cDNA, a 511 by segment of human prostate-specific membrane antigen (PSM) cDNA, and bovine brain glycolipid transfer protein (GTP) cDNA (660 bp). cDNA synthesis was carried out using the FIRST-STRAND® RT-PCR kit from Stratagene on the respective mRNAs purchased from Clontech. All amplification reactions for gene were carried out using a single master batch of cDNA. Taq polymerase and dNTPs were obtained from Stratagene. Primers were obtained from Genosys. Primer melting temperatures (Tms) were calculated using the Genosys oligo calculator program. The sequences of the primers were as follows.
Polymerase chain reactions for the N-WASP gene were conducted on a ROBOCYCLER® Gradient 40 thermal cycler from Stratagene using 100 ul solutions in 600 ul thin-walled tubes. For expediency, amplification of c-jun, PSM and GTP was carried out in a ROBOCYCLER® Gradient 96 thermal cycler from Stratagene using 50 ul solutions in 200 ul thin-walled tubes. Prior to Taq polymerase addition, a hotstart protocol was carried out that consisted of an initial cycle of 95° C. for 5 minutes (11) to ensure complete first-strand separation, followed by a cycle of 54° C. for 5 minutes. Amplifications were run for 30 cycles. Denaturation was done for 1 minute at the minimum temperatures that yielded discernable amplification: 92° C. for N-WASP and 95° C. for c-jun, PSM and GTP. Extension was done at 72° C. for periods depending on target length: 2 minutes for N-WASP, 1.5 minutes for c-jun and GTP, and 1 minute for PSM. Annealings were carried out either at fixed concentrations of additives using temperature gradients of 38-56° C. for N-WASP and 44-58° C. for the other targets, or at varying concentrations of additives using fixed temperatures of 41° C. for N-WASP, 50° C. for c-jun and PSM, and 54° C. for GTP.
Amplification products were analyzed by agarose gel electrophoresis on 0.8% agarose gels in which 20 ul reaction products were loaded with 4 ul loading buffer. […] Densitometric quantitation of amplification products was carried out using IMAGE SCANNER® and IMAGE MASTER® software from Amersham Pharmacia. […]

Taq polymerase [2] = biological target: T1, Taq polymerase (Thermus aquaticus, UniProt P19821); experiment: Taq polymerase activity assays at low temperature in the presence of additives; conditions: for Activity of Taq polymerase / Activation: 1.0M 1,5-pentanediol, 0.7M 1,6-hexanediol; for Activity of Taq polymerase: normalized to activity of control at 62° C.; for Activation: change in Taq activity versus control
T1 construct: purchased Stratagene
Experimental: The measured polymerase activity, then, is in fact a function of two variables—temperature and additive concentration. The plot of measured activity versus temperature and additive concentration is a two-dimensional surface. While a truly comprehensive search for maximal polymerase activity would entail screening this entire surface, the number of experiments required to do so would of course be impractical. Therefore, polymerase activity was measured first as a function of temperature in the absence of additives and at one given, high additive concentration. The temperature that yielded the maximum activity of the polymerase at that concentration was then targeted for concentration gradient studies.
First, polymerase activity assays were carried out in the absence of additives and in the presence of 1.0M 1,5-pentanediol and 0.7M 1,6-hexanediol at temperatures between 46 and 62° C. Next, polymerase activity was studied at 53° C. in the presence of concentration gradients of 1,5-pentanediol, 2-pyrrolidone, sulfolane and tetramethylene sulfoxide. The concentrations tested were: 1,5-pentanediol: 1.0, 1.3, 1.5, 2.25, 3.0 and 3.5M; 2-pyrrolidone: 1.25, 1.5, 2.0 and 3.9M; sulfolane: 1.0, 1.5, 2.0 and 2.75M, tetramethylene sulfoxide: 1.0, 1.5, 2.0 and 3.0M.

Taq polymerase [3] = biological target: T1, Taq polymerase; experiment: Predicted thermostability (half-life) of Taq polymerase in the presence of diols
Experimental: It is possible that this discrepancy was due to the greatly diminished thermostability of the polymerase at the cutoff concentrations. Based on thermodynamic data, Taq polymerase in the absence of template is predicted to have a half-life of about 8 seconds at 95° C. in the presence of 0.9M 1,2-butanediol and 10 seconds in the presence of 0.6M 1,5-pentanediol. These values will be increased in the presence of template, but will still be very low, especially during the initial cycles when template concentration is limited.

T1 sequence (P19821 whole entry): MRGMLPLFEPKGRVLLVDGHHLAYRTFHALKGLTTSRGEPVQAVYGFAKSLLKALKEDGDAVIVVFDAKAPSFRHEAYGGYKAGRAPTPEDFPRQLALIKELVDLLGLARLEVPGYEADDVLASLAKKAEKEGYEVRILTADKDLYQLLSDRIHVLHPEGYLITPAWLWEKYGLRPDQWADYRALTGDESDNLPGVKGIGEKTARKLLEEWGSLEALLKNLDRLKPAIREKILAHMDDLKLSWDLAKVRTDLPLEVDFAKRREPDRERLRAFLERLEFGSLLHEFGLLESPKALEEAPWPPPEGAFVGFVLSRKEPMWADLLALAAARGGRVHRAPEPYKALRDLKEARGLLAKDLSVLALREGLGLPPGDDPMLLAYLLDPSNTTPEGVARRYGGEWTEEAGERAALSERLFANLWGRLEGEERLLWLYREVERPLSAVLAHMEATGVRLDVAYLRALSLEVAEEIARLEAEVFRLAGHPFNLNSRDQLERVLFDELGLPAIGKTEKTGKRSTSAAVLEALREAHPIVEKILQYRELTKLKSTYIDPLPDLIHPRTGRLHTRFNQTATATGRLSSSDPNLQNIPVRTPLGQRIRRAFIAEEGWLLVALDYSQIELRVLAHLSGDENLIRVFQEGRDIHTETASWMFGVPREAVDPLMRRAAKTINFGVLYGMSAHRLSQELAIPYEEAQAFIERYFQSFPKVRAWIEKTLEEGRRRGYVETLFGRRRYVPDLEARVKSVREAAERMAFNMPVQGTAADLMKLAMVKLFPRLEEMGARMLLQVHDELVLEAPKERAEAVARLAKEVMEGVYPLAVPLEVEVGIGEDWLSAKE

With CCC(O)CO (centres unmarked) [1,2-Butanediol] the Potency ([1]; 92/62° C. denaturation/extension, normalized: 1,5-pentanediol (95/72° C.) = 1) was 0.91, the Potency ([1]; 92/62° C. denaturation/extension, normalized: 1,5-pentanediol (95/72° C.) = 1, listed as 1,2-butanediol) was “High product yield” and the Effective ([1]; 92/62° C., concentration interval over which target band minus control is at least 50% of maximum volume) was 0.72-1.02. For the same compound, the Potency ([1]; 92/72° C. denaturation/extension, normalized: 1,5-pentanediol (95/72° C.) = 1) was 0.00.
With OCCCCCO [1,5-Pentanediol] the “Activation of Taq polymerase” value (Taq polymerase [2]; 1.0M, within 49° C.-53° C.) was “exceeds 25%”, the “Activity of Taq polymerase” value (Taq polymerase [2]; 47° C.) was 0.30 and the Activation (Taq polymerase [2]; 47° C.) was −9%. The “Activity of Taq polymerase” value (Taq polymerase [2]; 48° C.) was 0.40, the Activation (Taq polymerase [2]; 48° C.) was −3% and the “Activity of Taq polymerase” value (Taq polymerase [2]; 49° C.) was 0.54. The Activation (Taq polymerase [2]; 49° C.) was “+10%”, the “Activity of Taq polymerase” value (Taq polymerase [2]; 50° C.) was 0.59 and the Activation (Taq polymerase [2]; 50° C.) was “+18%”. For the same compound, the “Activity of Taq polymerase” value (Taq polymerase [2]; 51° C.) was 0.64, the Activation (Taq polymerase [2]; 51° C.) was “+21%” and the “Activity of Taq polymerase” value (Taq polymerase [2]; 52° C.) was 0.69. For the same compound, the Activation (Taq polymerase [2]; 52° C.) was “+35%”, the “Activity of Taq polymerase” value (Taq polymerase [2]; 53° C.) was 0.70 and the “Taq polymerase activity at 3.5M (in words)” value (Taq polymerase [2]; 53° C., 3.5M (36.4%)) was “residual activity”. The Activation (Taq polymerase [2]; 53° C.) was “+23%”, the “effect on Taq polymerase activity at high concentrations (in words)” value (Taq polymerase [2]; 53° C., concentration gradients, compared with 2-pyrrolidone, sulfolane and tetramethylene sulfoxide) was “compromises polymerase activity to the least extent” and the “Activity of Taq polymerase” value (Taq polymerase [2]; 54° C.) was 0.63. For the same compound, the Activation (Taq polymerase [2]; 54° C.) was “+3%”, the “Activity of Taq polymerase” value (Taq polymerase [2]; 55° C.) was 0.57 and the Activation (Taq polymerase [2]; 55° C.) was −19%. For the same compound, the “half-life of Taq polymerase” value (Taq polymerase [3]) was roughly 10 s.
